The target of one experiment is KRAS G12D (Homo sapiens, UniProt P01116, G12D). Nature of the experiment: In-vitro RAS-RAF binding assay (RRB), HTRF/FRET. It counts as biochemical. On the set-up: Biotinylated KRAS protein amino acids 1-169 (produced at Erasca); made in house. The gist of the method: (§1)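 Compounds preincubated with terbium-labelled biotinylated KRAS (aa 1-169, 30 nM) before 60 min SOS1-catalysed exchange to GTPgS. Binding of the d2-labelled cRAF RBD (30 nM) is read as FRET at equilibrium in duplicate. Buffer: 50 mM HEPES pH 7.5, 100 mM NaCl, 1 mM MgCl2, 1 mM DTT.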

The next experiment has as its target T1, KRAS (WT) (Homo sapiens, UniProt P01116).
T1 construct: Biotinylated KRAS protein amino acids 1-169 (produced at Erasca); made in house
Nature of the experiment: In-vitro RAS-RAF binding assay (RRB), HTRF/FRET. Format: biochemical. An outline of the steps: as §1
A general note: In TR-FRET formats the signal depends on donor and acceptor labels being close together.

[1] abbreviates: Table 2, average of multiple runs of each compound, read-out: Inhibition of RAS-RAF Binding (in-vitro) KRAS (G12D) IC50.
Where [2] appears, read: Table 2, average of multiple runs of each compound, read-out: Inhibition of RAS-RAF Binding (in-vitro) KRAS (WT) IC50.

The values that follow come from US20240293558A1, “KRAS INHIBITOR CONJUGATES” (Erasca, Inc., priority 2021, published 2024).

Like-named read-outs stand apart in the source and are kept apart here.

T1 sequence (P01116 1-169 isoform P01116-2): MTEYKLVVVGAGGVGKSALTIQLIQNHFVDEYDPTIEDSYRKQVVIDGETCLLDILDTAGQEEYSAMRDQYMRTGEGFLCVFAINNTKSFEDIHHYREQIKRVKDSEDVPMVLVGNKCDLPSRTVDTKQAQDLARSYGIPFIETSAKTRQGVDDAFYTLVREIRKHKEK
Sequence of KRAS G12D (P01116 1-169 isoform P01116-2 G12D): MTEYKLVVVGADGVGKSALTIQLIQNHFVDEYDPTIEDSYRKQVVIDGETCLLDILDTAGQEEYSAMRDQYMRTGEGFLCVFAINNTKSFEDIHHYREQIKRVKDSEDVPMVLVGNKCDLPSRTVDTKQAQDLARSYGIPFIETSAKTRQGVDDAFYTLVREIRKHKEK

Usually IC50 stands for the midpoint of a concentration-inhibition curve. Turning to `C#Cc1c(F)ccc2cc(O)cc(-c3ncc4c(N5CC6CCC(C5)N6)nc(OC[C@@H]5CCCN5CCCOCCC(=O)N[C@H](C(=O)N5C[C@H](O)C[C@H]5C(=O)N[C@@H](C)c5ccc(-c6ccncc6C#N)cc5)C(C)(C)C)nc4c3F)c12` [Example 28, (2S,4R)-1-((2S)-2-(3-(3-((2S)-2-(((4-(3,8-diazabicyclo[3.2.1]octan-3-yl)-7-(8-ethynyl-7-fluoro-3-hydroxynaphthalen-1-yl)-8-fluoropyrido[4,3-d]pyrimidin-2-yl)oxy)methyl)pyrrolidin-1-yl)propoxy)propanamido)-3,3-dimethylbutanoyl)-N—((S)-1-(4-(3-cyanopyridin-4-yl)phenyl)ethyl)-4-hydroxypyrrolidine-2-carboxamide], the IC50 at KRAS G12D (setting [1]) is 7.93 nM; on KRAS (WT) (setting [2]), 24.2 nM.

For `C[C@H](NC(=O)[C@@H]1C[C@@H](O)CN1C(=O)[C@@H](NC(=O)CCOCCCN1CCC[C@H]1COc1nc(N2CC3CCC(C2)N3)c2cc(Cl)c(-c3ccc(F)c4sc(N)c(C#N)c34)c(F)c2n1)C(C)(C)C)c1ccc(-c2ccccc2Cl)cc1` [Example 25, (2S,4R)-1-((2S)-2-(3-(3-((2S)-2-(((7-(2-amino-3-cyano-7-fluorobenzo[b]thiophen-4-yl)-4-(3,8-diazabicyclo[3.2.1]octan-3-yl)-6-chloro-8-fluoroquinazolin-2-yl)oxy)methyl)pyrrolidin-1-yl)propoxy)propanamido)-3,3-dimethylbutanoyl)-N—((S)-1-(2′-chloro-[1,1′-biphenyl]-4-yl)ethyl)-4-hydroxypyrrolidine-2-carboxamide], the IC50 came to 12 nM on KRAS G12D (setting [1]) and 107 nM at KRAS (WT) (setting [2]).

As for `C#Cc1c(F)ccc2cc(O)cc(-c3ncc4c(N5CC6CCC(C5)N6)nc(OC[C@@H]5CCCN5CCCOCCC(=O)N[C@H](C(=O)N5C[C@H](O)C[C@H]5C(=O)N[C@@H](C)c5ccc(N6CCC[C@H]6C(N)=O)cc5)C(C)(C)C)nc4c3F)c12` [Example 46, (2S,4R)-1-((2S)-2-(3-(3-((2S)-2-(((4-(3,8-diazabicyclo[3.2.1]octan-3-yl)-7-(8-ethynyl-7-fluoro-3-hydroxynaphthalen-1-yl)-8-fluoropyrido[4,3-d]pyrimidin-2-yl)oxy)methyl)pyrrolidin-1-yl)propoxy)propanamido)-3,3-dimethylbutanoyl)-N-((S)-1-(4-((S)-2-carbamoylpyrrolidin-1-yl)phenyl)ethyl)-4-hydroxypyrrolidine-2-carboxamide], the IC50 on KRAS G12D (Inhibition of RAS-RAF Binding (in-vitro) KRAS (G12D) IC50 (nM), Table 2, average of multiple runs of each compound) is 5.87 nM; at KRAS (WT) (Inhibition of RAS-RAF Binding (in-vitro) KRAS (WT) IC50 (nM), Table 2, average of multiple runs of each compound) it was 21.4 nM.

On to `C#Cc1c(F)ccc2cc(O)cc(-c3ncc4c(N5CC6CCC(C5)N6)nc(OC[C@@H]5CCCN5CCCOCCC(=O)N[C@H](C(=O)N5C[C@H](O)C[C@H]5C(=O)N[C@@H](C)c5ccc(N6CCC[C@H]6C#N)cc5)C(C)(C)C)nc4c3F)c12` [Example 33, (2S,4R)-1-((2S)-2-(3-(3-((2S)-2-(((4-(3,8-diazabicyclo[3.2.1]octan-3-yl)-7-(8-ethynyl-7-fluoro-3-hydroxynaphthalen-1-yl)-8-fluoropyrido[4,3-d]pyrimidin-2-yl)oxy)methyl)pyrrolidin-1-yl)propoxy)propanamido)-3,3-dimethylbutanoyl)-N—((S)-1-(4-((S)-2-cyanopyrrolidin-1-yl)phenyl)ethyl)-4-hydroxypyrrolidine-2-carboxamide], for which the IC50 worked out at 7.48 nM at KRAS G12D (setting [1]) and 3.05 nM on KRAS (WT) (setting [2]).

With `C#Cc1c(F)ccc2cc(O)cc(-c3ncc4c(N5CC6CCC(C5)N6)nc(OC[C@@H]5CCCN5CCCOCC(=O)N[C@H](C(=O)N5C[C@H](O)C[C@H]5C(=O)N[C@@H](C)c5ccc(-c6c(F)ccc(F)c6F)cc5)C(C)(C)C)nc4c3F)c12` [Example 53, (2S,4R)-1-((2S)-2-(2-(3-((2S)-2-(((4-(3,8-diazabicyclo[3.2.1]octan-3-yl)-7-(8-ethynyl-7-fluoro-3-hydroxynaphthalen-1-yl)-8-fluoropyrido[4,3-d]pyrimidin-2-yl)oxy)methyl)pyrrolidin-1-yl)propoxy)acetamido)-3,3-dimethylbutanoyl)-4-hydroxy-N-((S)-1-(2′,3′,6′-trifluoro-[1,1′-biphenyl]-4-yl)ethyl)pyrrolidine-2-carboxamide], the IC50 came out at 8.82 nM on KRAS G12D (setting [1]) and 123 nM at KRAS (WT) (setting [2]).

As to `C#Cc1c(F)ccc2cc(O)cc(-c3ncc4c(N5CC6CCC(C5)N6)nc(OC[C@@H]5CCCN5CCCOCCC(=O)N[C@H](C(=O)N5C[C@H](O)C[C@H]5C(=O)N[C@@H](C)c5ccc(-c6c(Cl)cccc6Cl)cc5)C(C)(C)C)nc4c3F)c12` [Example 45], the IC50 at KRAS G12D (setting [1]) was determined as 8.97 nM; on KRAS (WT) (setting [2]), 44.9 nM.

On to `C#Cc1c(F)ccc2cc(O)cc(-c3ncc4c(N5CC6CCC(C5)N6)nc(OC[C@@H]5CCCN5CCCOCCC(=O)N[C@H](C(=O)N5C[C@H](O)C[C@H]5C(=O)N[C@@H](C)c5ccc(-c6c(F)cccc6F)nc5)C(C)(C)C)nc4c3F)c12` [Example 31, (2S,4R)-1-((2S)-2-(3-(3-((2S)-2-(((4-(3,8-diazabicyclo[3.2.1]octan-3-yl)-7-(8-ethynyl-7-fluoro-3-hydroxynaphthalen-1-yl)-8-fluoropyrido[4,3-d]pyrimidin-2-yl)oxy)methyl)pyrrolidin-1-yl)propoxy)propanamido)-3,3-dimethylbutanoyl)-N—((S)-1-(6-(2,6-difluorophenyl)pyridin-3-yl)ethyl)-4-hydroxypyrrolidine-2-carboxamide], for which the IC50 on KRAS G12D (setting [1]) was 8.38 nM; at KRAS (WT) (setting [2]), 27.8 nM.

In the case of `C#Cc1c(F)ccc2cc(O)cc(-c3ncc4c(N5CC6CCC(C5)N6)nc(OCCN5CCC(COc6cc([C@H](C(=O)N7C[C@H](O)C[C@H]7C(=O)N[C@@H](C)c7ccc(-c8c(F)cc(F)cc8F)cc7)C(C)C)on6)CC5)nc4c3F)c12` [Example 63, (2S,4R)-1-((2R)-2-(3-((1-(2-((4-(3,8-diazabicyclo[3.2.1]octan-3-yl)-7-(8-ethynyl-7-fluoro-3-hydroxynaphthalen-1-yl)-8-fluoropyrido[4,3-d]pyrimidin-2-yl)oxy)ethyl)piperidin-4-yl)methoxy)isoxazol-5-yl)-3-methylbutanoyl)-4-hydroxy-N-((S)-1-(2′,4′,6′-trifluoro-[1,1′-biphenyl]-4-yl)ethyl)pyrrolidine-2-carboxamide], the results for the IC50 on KRAS G12D (setting [1]) and at KRAS (WT) (setting [2]) were 10.6 nM and 8330 nM, respectively.

Turning to `C#Cc1c(F)ccc2cc(O)cc(-c3ncc4c(N5CC6CCC(C5)N6)nc(OC[C@@H]5CCCN5CCCOCCC(=O)O[C@H](C(=O)N5C[C@H](O)C[C@H]5C(=O)N[C@@H](C)c5ccc(-c6c(C)cccc6C(F)(F)F)cc5)C(C)(C)C)nc4c3F)c12` [Example 50, (S)-1-((2S,4R)-4-hydroxy-2-(((S)-1-(2′-methyl-6′-(trifluoromethyl)-[1,1′-biphenyl]-4-yl)ethyl)carbamoyl)pyrrolidin-1-yl)-3,3-dimethyl-1-oxobutan-2-yl 3-(3-((2S)-2-(((4-(3,8-diazabicyclo[3.2.1]octan-3-yl)-7-(8-ethynyl-7-fluoro-3-hydroxynaphthalen-1-yl)-8-fluoropyrido[4,3-d]pyrimidin-2-yl)oxy)methyl)pyrrolidin-1-yl)propoxy)propanoate], the IC50 worked out at 10.2 nM on KRAS G12D (setting [1]) and 98.9 nM on KRAS (WT) (setting [2]).

Consider `C#Cc1c(F)ccc2cc(O)cc(-c3ncc4c(N5CC6CCC(C5)N6)nc(OC[C@@H]5CCCN5CCCOCCC(=O)N[C@H](C(=O)N5C[C@H](O)C[C@H]5C(=O)N[C@@H](C)c5ccc(-c6cc(F)c(F)c(F)c6)cc5)C(C)(C)C)nc4c3F)c12` [Example 52, (2S,4R)-1-((2S)-2-(3-(3-((2S)-2-(((4-(3,8-diazabicyclo[3.2.1]octan-3-yl)-7-(8-ethynyl-7-fluoro-3-hydroxynaphthalen-1-yl)-8-fluoropyrido[4,3-d]pyrimidin-2-yl)oxy)methyl)pyrrolidin-1-yl)propoxy)propanamido)-3,3-dimethylbutanoyl)-4-hydroxy-N-((S)-1-(3′,4′,5′-trifluoro-[1,1′-biphenyl]-4-yl)ethyl)pyrrolidine-2-carboxamide], for which the IC50 at KRAS G12D (setting [1]) worked out at 7.84 nM; at KRAS (WT) (setting [2]), 114 nM.

On to `Cc1cc(N)nc(-c2c(Cl)cc3c(N4CC5CCC(C4)N5)nc(OC[C@@H]4CCCN4CCCCCCCN4CCC(c5cc(F)cc6c5CN(C5CCC(=O)NC5=O)C6=O)CC4)nc3c2F)c1C(F)(F)F` (stereo partly drawn) [Example 5, 3-[4-[1-[7-[(2S)-2-[[7-[6-amino-4-methyl-3-(trifluoromethyl)-2-pyridyl]-6-chloro-4-(3,8-diazabicyclo[3.2.1]octan-3-yl)-8-fluoro-quinazolin-2-yl]oxymethyl]pyrrolidin-1-yl]heptyl]-4-piperidyl]-6-fluoro-1-oxo-isoindolin-2-yl]piperidine-2,6-dione], for which the IC50 is 19 nM on KRAS G12D (Table 1, read-out: Inhibition of RAS-RAF Binding (in-vitro) KRAS (G12D) IC50); 18.8 nM at KRAS G12D (setting [1]); 2440 nM at KRAS (WT) (Table 1, read-out: Inhibition of RAS-RAF Binding (in-vitro) KRAS (WT) IC50); 4920 nM at KRAS (WT) (setting [2]).

Consider `C[C@H](NC(=O)[C@@H]1C[C@@H](O)CN1C(=O)[C@@H](NC(=O)CCCCN1CCC[C@H]1COc1nc(N2CC3CCC(C2)N3)c2cnc(-c3cc(O)cc4cccc(F)c34)c(F)c2n1)C(C)(C)C)c1ccc(-c2ccccc2)cc1` [Example 83, (2S,4R)-1-((2S)-2-(5-((2S)-2-(((4-(3,8-diazabicyclo[3.2.1]octan-3-yl)-8-fluoro-7-(8-fluoro-3-hydroxynaphthalen-1-yl)pyrido[4,3-d]pyrimidin-2-yl)oxy)methyl)pyrrolidin-1-yl)pentanamido)-3,3-dimethylbutanoyl)-N-((S)-1-([1,1′-biphenyl]-4-yl)ethyl)-4-hydroxypyrrolidine-2-carboxamide], for which the IC50 is 7.7 nM on KRAS G12D (setting [1]) and 484 nM on KRAS (WT) (setting [2]).
